Measurements reported in patent publication US4223146A, “4,5,6,7-Tetrahydroimidazo-[4,5-c]-pyridine derivatives” (Farmitalia Carlo Erba S.p.A., priority 1978, dated 1980).
Where two headings read alike, the source gives them in different places.

Tests used:
[1] = Anticholinergic Activity in Rats; parameters: species or system Sprague-Dawley rats (male); details: rat, in vivo
Procedure: (3) Anticholinergic Activity in Rats. Considering that many anti-ulcer agents display, as does atropine, a remarkable but undesired anti-cholinergic activity, some derivatives were assessed for their antagonism against chromodacryorrhea induced by carbacholine in rats. (Winburg M. et al, J. Pharm. Exp. Therap., 1949, 95, 53).

gastric secretion = assay: Inhibition of Gastric Secretion in Rats (pylorus ligature); assay type: in vivo, Sprague-Dawley rats (male); details: Rattus norvegicus, sc, 4 h, s.c. at the time of ligature, read-out: ED50 Antisecretory s.c.
Procedure: (2) Inhibition of Gastric Secretion in Rats (Shay, Gastroenterology, 1945, 43, 5).
Gastric antisecretory activity was evaluated in rats by the pylorus ligature technique. Six Sprague-Dawley male rats (110-130 g) were used for each group. Twenty-four hours before the test, the rats were deprived of food but their water supply was maintained. On the day of the operation, the pylorus was ligated under light ether anaesthesia. Four hours after the ligature, the rats were sacrificed, the stomach secretion was collected and centrifuged at 3500 r.p.m. for 10 minutes, and the volume, less sediment, was determined.
The amount of the free hydrochloric acid in the gastric juice was determined by titration against 0.01 N sodium hydroxide, using Topfer's Indicator. Each compound was injected subcutaneously at the time of ligature.

restraint ulcer = assay: Inhibition of Restraint Ulcer in Rats; assay type: in vivo, Sprague-Dawley rats (male); details: Rattus norvegicus
Procedure: (B 1) Inhibition of Restraint Ulcer in Rats (Bonfils et al, Therapie, 1960, 15, 1096).
Six Sprague - Dawley male rats (100-120 g) fasted for 24 hours were used for each group. A square flexible small-mesh wire netting was used for immobilization. After 4 hours immobilization the rats were sacrificed, their stomachs were removed, and lesions counted under a dissecting microscope.
The results obtained are reported below in Table 1, wherein the values are given as ED50.
The compounds were administered subcutaneously (s.c.) immediately before the immobilization or orally (os) one hour before.

[2] = system: acetylsalicylic acid-induced gastric ulcers; assay: Inhibition of Acetylsalicylic Acid-Induced Gastric Ulcers in Rats; assay type: in vivo, Sprague-Dawley rats (male); details: Rattus norvegicus, 4 h
Procedure: (4) Inhibition of Acetylsalicylic Acid-Induced Gastric Ulcers in Rats.
Six Sprague-Dawley male rats (200-250 g) were used for each group. Twenty-four hours before the test, the rats were deprived of food but their water supply was maintained. Acetylsalicylic acid (100 mg/Kg) suspended in 5% gum arabic solution was given orally to the rats. Antagonists, at 3 dose levels, were given orally 60 minutes, and subcutaneously 30 minutes, before the acetylsalicylic acid treatment.
After sacrificing the animals, four hours after administration of the antagonist, the stomachs were removed, slightly inflated and immersed in 1% formalin solution for 10 minutes for fixation.
Subsequently, the stomachs were incised along the greater curvature and the lengths of lesions measured under a dissecting microscope (10 X) with a square grid. The sum of the lengths (mm) of the lesions per rat was used as the ulcer index. The percentage inhibition was calculated in respect of the ulcer index of the control group.

Toxicity (LD50) in mice = details: mouse, in vivo, po, os
Procedure: Four compounds were examined also for the activity on acetylsalicyclic acid- and cysteamine-induced ulcers and their toxicity was also determined in mice.

[3] = system: cysteamine-induced duodenal lesions; assay: Inhibition of Cysteamine-Induced Duodenal Lesions in Rats; assay type: in vivo, Sprague-Dawley rats (male); details: Rattus norvegicus
Procedure: (5) Inhibition of Cysteamine-Induced Duodenal Lesions in Rats.
Six Sprague-Dawley male rats (200-225 g) were used for each group. Twenty-four hours before the test, the rats were deprived of food but allowed free access to water. Cysteamine HCl (400 mg/Kg) dissolved in physiological saline was administered subcutaneously.
Antagonists were given orally 60 minutes, and subcutaneously 30 minutes, before the cysteamine treatment. The animals were kept fasting completely for 18-24 hours after cysteamine administration, then sacrificed by an overdose of ether.
The stomach and duodenum of each rat were excised to determine the presence of gastroduodenal lesions. The sum of the area (mm^2) of lesions for each rat was measured under a dissecting microscope (10X) with a square grid and then used as an ulcer index. The percentage inhibition was calculated in respect of the ulcer index of the control group.

[4] = po, os, read-out: ED50 Anticholinergic os
[5] = sc, read-out: ED50 Anticholinergic s.c.
[6] = po, 1 h, orally one hour before immobilization, read-out: ED50 Antiulcer os
[7] = sc, 4 h, s.c. immediately before the immobilization, read-out: ED50 Antiulcer s.c.
[8] = po, orally 60 minutes before acetylsalicylic acid, read-out: ED50 Acetylsalicilic acid os
[9] = sc, s.c. 30 minutes before acetylsalicylic acid, read-out: ED50 Acetylsalicilic acid s.c.
[10] = po, orally 60 minutes before cysteamine, read-out: ED50 Cysteamine os
[11] = sc, s.c. 30 minutes before cysteamine, read-out: ED50 Cysteamine s.c.

## CCC1c2ncn(CC)c2CCN1C(=S)NC(C)C (stereo not drawn) [I C2 H5 C2 H5 i.Pr, 1,4-Diethyl-5-(N-isopropylthiocarbamoyl)-4,5,6,7-tetrahydroimidazo-[4,5-c]-pyridine]
[1]; [4]
  ED50: > 400 mg/kg
[1]; [5]
  ED50: > 200 mg/kg
Gastric secretion
  ED50: 6 mg/kg
Restraint ulcer; [6]
  ED50: 3.5 mg/kg
Restraint ulcer; [7]
  ED50: 2 mg/kg
[2]; [8]
  ED50: 0.7 mg/kg
[2]; [9]
  ED50: 0.7 mg/kg
Toxicity (LD50) in mice
  LD50: > 2500 mg/kg
[3]; [10]
  ED50: 10 mg/kg
[3]; [11]
  ED50: 0.5 mg/kg

## CCC1c2ncn(C)c2CCN1C(=S)NC(C)C (stereo not drawn) [I CH3 C2 H5 i.Pr, 1-Methyl-4-ethyl-5-(N-isopropylthiocarbamoyl)-4,5,6,7-tetrahydroimidazo-[4,5-c]-pyridine]
[1]; [4]
  ED50: > 100 mg/kg
[1]; [5]
  ED50: > 100 mg/kg
Gastric secretion
  ED50: 20 mg/kg
Restraint ulcer; [6]
  ED50: 2.5 mg/kg
Restraint ulcer; [7]
  ED50: 4 mg/kg
[2]; [8]
  ED50: 20 mg/kg
[2]; [9]
  ED50: 10 mg/kg
Toxicity (LD50) in mice
  LD50: > 2500 mg/kg
[3]; [10]
  ED50: 40 mg/kg
[3]; [11]
  ED50: 20 mg/kg

## CNC(=S)N1CCc2c(ncn2C)C1 [I CH3 H CH3, 1-Methyl-5-(N-methylthiocarbamoyl)-4,5,6,7-tetrahydroimidazo-[4,5-c]-pyridine]
[1]; [4]
  ED50: > 100 mg/kg
[1]; [5]
  ED50: > 100 mg/kg
Gastric secretion
  ED50: 30 mg/kg
Restraint ulcer; [6]
  ED50: 25 mg/kg
Restraint ulcer; [7]
  ED50: 15 mg/kg

## CC(C)NC(=S)N1CCc2c(ncn2C)C1 [I CH3 H i.Pr, 1-Methyl-5-(N-isopropylthiocarbamoyl)-4,5,6,7-tetrahydroimidazo-[4,5-c]-pyridine]
[1]; [4]
  ED50: 100 mg/kg
[1]; [5]
  ED50: 25 mg/kg
Gastric secretion
  ED50: 26 mg/kg
Restraint ulcer; [6]
  ED50: 4.5 mg/kg
Restraint ulcer; [7]
  ED50: 1.2 mg/kg

## CCC1c2c(ncn2CC)CCN1C(=S)NC(C)C (stereo not drawn) [II C2 H5 C2 H5 i.Pr, 3,4-diethyl-5-(N-isopropylthiocarbamoyl)-4,5,6,7-tetrahydroimidazo-[4,5-c]-pyridine, reference compound]
[1]; [4]
  ED50: > 100 mg/kg
[1]; [5]
  ED50: > 100 mg/kg
Gastric secretion
  ED50: 10 mg/kg
[2]; [8]
  ED50: 9 mg/kg
[2]; [9]
  ED50: 6.5 mg/kg
Toxicity (LD50) in mice
  LD50: 870 mg/kg
[3]; [10]
  ED50: 40 mg/kg
[3]; [11]
  ED50: 5.5 mg/kg

## CCC1c2c(ncn2C)CCN1C(=S)NC(C)C (stereo not drawn) [II CH3 C2 H5 i.Pr, 3-Methyl-4-ethyl-5-(N-isopropylthiocarbamoyl)-4,5,6,7-tetrahydroimidazo-[4,5-c]-pyridine, reference compound]
[1]; [4]
  ED50: 60 mg/kg
[1]; [5]
  ED50: 40 mg/kg
Gastric secretion
  ED50: 50 mg/kg
Restraint ulcer; [6]
  ED50: 50 mg/kg
Restraint ulcer; [7]
  ED50: 10 mg/kg
[2]; [8]
  ED50: 40 mg/kg
[2]; [9]
  ED50: 25 mg/kg
Toxicity (LD50) in mice
  LD50: 980 mg/kg
[3]; [10]
  ED50: 100 mg/kg
[3]; [11]
  ED50: 50 mg/kg

## CNC(=S)N1CCc2ncn(C)c2C1 [II CH3 H CH3, reference compound]
[1]; [4]
  ED50: 100 mg/kg
[1]; [5]
  ED50: 50 mg/kg
Gastric secretion
  ED50: 50 mg/kg
Restraint ulcer; [6]
  ED50: 50 mg/kg
Restraint ulcer; [7]
  ED50: 50 mg/kg

## CC(C)NC(=S)N1CCc2ncn(C)c2C1 [II CH3 H i.Pr, 3-Methyl-5-(N-isopropylthiocarbamoyl)-4,5,6,7-tetrahydroimidazo-[4,5-c]-pyridine]
[1]; [4]
  ED50: 50 mg/kg
[1]; [5]
  ED50: 7 mg/kg

## C/N=C(\S)NCCSCc1[nH]cnc1C [Methiamide]
[1]; [4]
  ED50: 85 mg/kg
[1]; [5]
  ED50: 65 mg/kg
